According to patent US20040002506A1, “Novel class of cytodifferentiating agents and histone deacetylase inhibitors, and methods of use thereof” (Sloan Kettering Institute for Cancer Research, priority 1999, published 2004):

Tested on: Murine erythroleukemia (MEL) cells
Experiment: MEL cell differentiation assay (benzidine assay, 5-day culture)
Type: cell-based
Conditions: Table 2, "No inh" = words
Experimental: (§1) Murine erythroleukemia (MEL) cell differentiation. The MEL cell differentiation assay was used to assess the ability of Compound 1 to induce terminal differentiation. MEL cells (logarithmically dividing) were cultured with the indicated concentrations of Compound 1. Following a 5-day culture period, cell growth was determined using a Coulter Counter and differentiation was determined microscopically using the benzidine assay to determine hemoglobin protein accumulation on a per cell basis.
as §1, with “The” for “Murine erythroleukemia (MEL) cell differentiation. The”, “2” for “1”, “2.” for “1.”, “period” for “period, cell growth was determined using a Coulter Counter and”
as §1, with “The” for “Murine erythroleukemia (MEL) cell differentiation. The”, “3” for “1”, “3.” for “1.”, “period” for “period, cell growth was determined using a Coulter Counter and”
as §1, with “The” for “Murine erythroleukemia (MEL) cell differentiation. The”, “4” for “1”, “4.” for “1.”, “period” for “period, cell growth was determined using a Coulter Counter and”, “accumulaiton” for “accumulation”
All the compounds which were prepared were tested. […] Table 2 is compiled from experiments similar to the experiments described in Examples 7-10 above.

Point of comparison: `O=C(CCCCCC(C(=O)Nc1ccc2ncccc2c1)C(=O)Nc1ccc2ncccc2c1)NO` [Structure 692], “MEL cell growth (cell count)” value 18.0 cells/ml × 10^−5. Against it:
- O=C(/C=C/c1cccc(C(C(=O)Nc2cccc3cccnc23)C(=O)Nc2cccc3cccnc23)c1)NO [Structure 690] — lower, 2.5 cells/ml × 10^−5
- O=C(/C=C/c1cccc(CC(=O)Nc2ccccc2)c1)NO [Structure 689] — lower, 2.0 cells/ml × 10^−5
